Source: paper PMC10222270, “Natural Product-Based Screening for Lead Compounds Targeting SARS CoV-2 M^pro” (Pharmaceuticals, 2023)
“And” between values parts separate entries of the source, which are not always exact repeats. Equal values may be shown once.

Target: T1, SARS CoV-2 M^pro (Severe acute respiratory syndrome coronavirus 2, UniProt P0DTD1)
T1 construct: The main protease (M^pro) is a part of the polyprotein chain, also named 3C-like protease; SUMO (cleaved yes); His; made in house; host or cells: Escherichia coli BL21(DE3)
Assay: biochemical
Format: biochemical
Conditions: for inhibition at 80 µM: read-out: Inhibition%(80μM); for result of retest over a concentration range: gradient concentrations

## C[C@@H]1O[C@@H](OC[C@H]2O[C@@H](OCCc3ccc(O)c(O)c3)[C@H](O)[C@@H](O)[C@@H]2OC(=O)/C=C/c2ccc(O)c(O)c2)[C@H](O)[C@H](O)[C@H]1O [Forsythoside A]
  Inhibition%(80μM): 73.60% and 71.69%
  inhibition at 80 µM: 77%

## CC(=O)OC(C)(C)CC(=O)O[C@@H](CC=C(C)C)C1=CC(=O)c2c(O)ccc(O)c2C1=O [3-(Acetyloxy)-3-methylbutanoic acid (1S)-1-(1,4-dihydro-5,8-dihydroxy-1,4-dioxo-2-naphthalenyl)-4-methyl-3-pentenyl ester]
  Inhibition%(80μM): 93.12% and 92.58% and 93.44%

## C[C@@H]1O[C@@H](OC[C@H]2O[C@@H](OCCc3ccc(O)c(O)c3)[C@H](O)[C@@H](O)[C@@H]2O)[C@H](O)[C@H](O)[C@H]1O [Forsythoside E]
  Inhibition%(80μM): 102.62% and 100.37%
  inhibition at 80 µM: 103%

## CCCCCCCC/C=C\CCCCCCCCCCCC(=O)O [Erucic Acid]
  Inhibition%(80μM): 99.68% and 100.48%
  inhibition at 80 µM: 101%

## Harmol
  Inhibition%(80μM): 74.50% and 81.33% and 79.31%

## Forsythoside B
  Inhibition%(80μM): 92.91% and 95.11% and 93.46%

## O=c1c(O)c(-c2ccc(O)c(O)c2)oc2cc(O)c(O)c(O)c12 [3,3',4',5,6,7-Hexahydroxyflavone]
  Inhibition%(80μM): 99.40% and 98.98% and 98.10%

## O=C(/C=C/c1ccc(O)c(O)c1)OC[C@H]1O[C@@H](OCCc2ccc(O)c(O)c2)[C@H](O)[C@@H](O[C@@H]2O[C@H](CO)[C@@H](O)[C@H](O)[C@H]2O)[C@@H]1O [Plantainoside D]
  Inhibition%(80μM): 99.79% and 99.90%
  inhibition at 80 µM: 101%

## O=c1oc2c(O)cc(O)cc2c2oc3cc(O)c(O)cc3c12 [Isodemethylwedelolacton]
  Inhibition%(80μM): 99.38% and 99.79%
  inhibition at 80 µM: 99.7%

## O=C(/C=C/c1ccc(O)c(O)c1)O[C@H](Cc1ccc(O)c(O)c1)C(=O)O [Rosmarinic Acid]
  Inhibition%(80μM): 46.31% and 76.08% and 69.63%

## CCCCCCCCCCC/C=C\CCCCC(=O)O [Petroselinic Acid]
  Inhibition%(80μM): 105.29% and 103.73%
  inhibition at 80 µM: 104%

## Oc1cc(O)cc(/C=C/c2c(O)cccc2O)c1 [Gnetol]
  Inhibition%(80μM): 81.39% and 81.62%
  inhibition at 80 µM: 81.5%

## C=C1C(=O)[C@]23[C@H](O)[C@H]1CC[C@H]2[C@@]12CO[C@]3(O)[C@@H](O)[C@@H]1C(C)(C)CC[C@@H]2O [Oridonin]
  Inhibition%(80μM): 83.80% and 85.60%
  inhibition at 80 µM: 84.3%

## O=C(/C=C/c1ccc(O)c(O)c1)OC[C@H]1O[C@@H](OCCc2ccc(O)c(O)c2)[C@H](O)[C@@H](O)[C@@H]1O [Desrhamnosyl Isoacteoside]
  Inhibition%(80μM): 93.35% and 94.40% and 92.55%

## O=C(O)[C@H]1O[C@@H](Oc2cc3oc(-c4ccccc4)cc(=O)c3c(O)c2O)[C@H](O)[C@@H](O)[C@@H]1O [Baicalin]
  Inhibition%(80μM): 72.02%
  inhibition at 80 µM: 77.5%

## CC(C)=CCC[C@]1(C)C=Cc2c(O)c3c(c(CC=C(C)C)c2O1)O[C@]12C(=C[C@@H]4C[C@H]1C(C)(C)O[C@@]2(C/C=C(/C)C(=O)O)C4=O)C3=O [Gambogic Acid]
  Inhibition%(80μM): 78.61% and 79.43%
  inhibition at 80 µM: 78.5%

## O=C(O[C@@H]1Cc2c(O)cc(O)cc2O[C@@H]1c1cc(O)c(O)c(O)c1)c1cc(O)c(O)c(O)c1 [(-)-Epigallocatechin Gallate]
  Inhibition%(80μM): 85.53% and 79.02%
  inhibition at 80 µM: 82.6%

## O=c1cc(-c2ccc(O)cc2)oc2cc(O)c(O)c(O)c12 [Scutellarein]
  Inhibition%(80μM): 85.01% and 83.89%
  inhibition at 80 µM: 84.1%

## O=C(O)[C@H]1O[C@@H](Oc2cc3oc(-c4ccc(O)cc4)cc(=O)c3c(O)c2O)[C@H](O)[C@@H](O)[C@@H]1O [Breviscapin]
  Inhibition%(80μM): 78.06% and 77.78%
  inhibition at 80 µM: 66%

## Echinacoside
  Inhibition%(80μM): 93.62% and 90.06% and 89.84%

## C/C=C1/[C@H](O[C@@H]2O[C@H](CO)[C@@H](O)[C@H](O)[C@H]2O)OC=C(C(=O)OC)[C@H]1CC(=O)OCCc1ccc(O)c(O)c1 [Oleuropein]
  Inhibition%(80μM): 97.72%
  inhibition at 80 µM: 96.6%

## C[C@@H]1OC(O[C@@H]2[C@@H](O)[C@H](OCCc3ccc(O)c(O)c3)O[C@H](CO[C@@H]3OC[C@@H](O)[C@H](O)[C@H]3O)[C@H]2OC(=O)/C=C/c2ccc(O)c(O)c2)[C@H](O)[C@H](O)[C@H]1O (some centres unmarked) [Arenarioside]
  Inhibition%(80μM): 99.86% and 99.31%
  inhibition at 80 µM: 99.1%

## O=C(O)c1ccc2c(c1)C(=O)c1ccccc1C2=O [Anthraquinone-2-Carboxylic Acid]
  Inhibition%(80μM): 84.57%
  inhibition at 80 µM: 85.4%

## CCCCCCCC/C=C\CCCCCCCC(=O)O [Oleic Acid]
  Inhibition%(80μM): 104.37% and 103.27%
  inhibition at 80 µM: 104%

## CCCCCCCCCCCC1=C(O)C(=O)C=C(O)C1=O [Embelin]
  Inhibition%(80μM): 89.75% and 99.35%
  inhibition at 80 µM: 103%

## CC(C)=CCC(OC(=O)C=C(C)C)C1=CC(=O)c2c(O)ccc(O)c2C1=O (stereo not drawn) [(β,β-Dimethylacryl)Shikonin]
  Inhibition%(80μM): 82.39% and 82.91% and 82.80%

## CC(C)=CCC(OC(=O)C=C(C)C)C1=CC(=O)c2c(O)ccc(O)c2C1=O (stereo not drawn) [β,β-dimethylacrylshikonin]
  Inhibition%(80μM): 75.31% and 77.34% and 77.10%

## CCCOC(=O)c1cc(O)c(O)c(O)c1 [Propyl Gallate]
  Inhibition%(80μM): 78.61% and 79.43%
  inhibition at 80 µM: 78.5%

## CC1=CC(=O)C=C(C)C1=O [2,6-Dimethylbenzoquinone]
  Inhibition%(80μM): 101.34% and 101.15%
  inhibition at 80 µM: 102%

## C[n+]1cc2c3c(ccc2c2ccc4cc5c(cc4c21)OCO5)OCO3 [sanguinarine, Sanguinarine]
  Inhibition%(80μM): 107.86% and 107.40% and 108.34%
  result of retest over a concentration range: no inhibitory effect on M^pro when retested

## OC[C@]1(O)COc2cc(O)ccc2-c2cc(O)c(O)cc2C1 [(7S)-3,7,10,11-Tetrahydroxy-7,8-dihydro-6H-dibenzo[b,d]oxocin-7-methanol]
  Inhibition%(80μM): 101.15% and 101.14% and 101.45%

## CCCCCCCCCCCCCCC(=O)O [Pentadecanoic Acid]
  Inhibition%(80μM): 92.58% and 91.46%
  inhibition at 80 µM: 92.3%

## CC(C)=CCCC1=CC(=O)c2c(O)ccc(O)c2C1=O [Deoxyshikonin]
  Inhibition%(80μM): 88.46% and 84.98%
  inhibition at 80 µM: 82.3%

## CC1=CC(=O)c2c(O)cccc2C1=O [Plumbagin]
  Inhibition%(80μM): 74.76% and 75.47%
  inhibition at 80 µM: 70.2%

## CC(C)=CCC/C(C)=C/Cc1cc(-c2coc3cc(O)ccc3c2=O)ccc1O [corylifol A, Corylifol A]
  Inhibition%(80μM): 100.01% and 99.99%
  result of retest over a concentration range: unable to generate a whole curve within the concentration range
  inhibition at 80 µM: 100%

## CC(=O)/C=C/c1ccc(O)c(O)c1 [Osmundacetone]
  Inhibition%(80μM): 98.31% and 98.46%
  inhibition at 80 µM: 98.7%

## (-)-Epigallocatechin
  Inhibition%(80μM): 78.95% and 75.28% and 77.55%

## CCCCCCCCCCCCCC(=O)O [Myristic Acid]
  Inhibition%(80μM): 82.11% and 84.30%
  inhibition at 80 µM: 85%

## CC1=C(O)C(=O)C=C2C1=CC=C1[C@@]2(C)CC[C@@]2(C)[C@@H]3C[C@](C)(C(=O)O)CC[C@]3(C)CC[C@]12C [Celastrol]
  Inhibition%(80μM): 85.83% and 91.32%
  inhibition at 80 µM: 89.6%

## O=C1O[C@H]2[C@@H]3OC(=O)c4cc(O)c(O)c(O)c4-c4c(O)c(O)c5oc(=O)c6c(c(O)c(O)c7oc(=O)c4c5c76)-c4c(cc(O)c(O)c4O)C(=O)OC[C@H]3OC(O)[C@@H]2OC(=O)c2cc(O)c(O)c(O)c2-c2c1cc(O)c(O)c2O (mixture of isomers) [Punicalagin]
  Inhibition%(80μM): 73.51% and 73.40%
  inhibition at 80 µM: 75%

## O=C(/C=C/c1ccc(O)c(O)c1)O[C@@H]1C[C@@](OC(=O)/C=C/c2ccc(O)c(O)c2)(C(=O)O)C[C@@H](O)[C@@H]1O [1,5-Dicaffeoylquinic Acid]
  Inhibition%(80μM): 75.61% and 71.24%
  inhibition at 80 µM: 74.6%

## O=C(O[C@@H]1O[C@@H]2COC(=O)c3cc(O)c(O)c(O)c3-c3c(cc(O)c(O)c3O)C(=O)O[C@H]([C@H]1O)[C@@H]2O)c1cc(O)c(O)c(O)c1 [Corilagin]
  Inhibition%(80μM): 101.84% and 101.22%
  inhibition at 80 µM: 101%

## CCCCC/C=C\C/C=C\CCCCCCCCCC(=O)O [Eicosadienoic Acid]
  Inhibition%(80μM): 103.14% and 107.18%
  inhibition at 80 µM: 105%

## O=c1c(O)c(-c2cc(O)c(O)c(O)c2)oc2cc(O)cc(O)c12 [Myricetin]
  Inhibition%(80μM): 90.18% and 90.28%
  inhibition at 80 µM: 90.6%

## O=C(OC[C@H]1O[C@@H](OC(=O)c2cc(O)c(O)c(OC(=O)c3cc(O)c(O)c(O)c3)c2)[C@H](OC(=O)c2cc(O)c(O)c(OC(=O)c3cc(O)c(O)c(O)c3)c2)[C@@H](OC(=O)c2cc(O)c(O)c(OC(=O)c3cc(O)c(O)c(O)c3)c2)[C@@H]1OC(=O)c1cc(O)c(O)c(OC(=O)c2cc(O)c(O)c(O)c2)c1)c1cc(O)c(O)c(OC(=O)c2cc(O)c(O)c(O)c2)c1 [Tannic Acid]
  Inhibition%(80μM): 88.66% and 87.66%
  inhibition at 80 µM: 89.6%

## NCCCN(CCCCNCCCNC(=O)CCc1ccc(O)c(O)c1)C(=O)CCc1ccc(O)c(O)c1 [Kukoamine B]
  Inhibition%(80μM): 103.22% and 104.32%
  inhibition at 80 µM: 104%

## O=C1O[C@H]2[C@@H]3OC(=O)c4cc(O)c(O)c(O)c4-c4c(cc(O)c(O)c4O)C(=O)OC[C@H]2O[C@@H](OC(=O)c2cc(O)c(O)c(O)c2)[C@@H]3OC(=O)c2cc(O)c(O)c3c2[C@@H]2C1=CC(=O)[C@](O)(O3)C2(O)O [Geraniin]
  Inhibition%(80μM): 70.07% and 71.11%
  inhibition at 80 µM: 71.6%

## O=C(O)Cc1ccc(O)c(O)c1 [3,4-Dihydroxyphenylacetic Acid]
  Inhibition%(80μM): 71.59% and 70.57%
  inhibition at 80 µM: 72.4%

## Oc1ccc2c(c1)OC[C@]1(O)Cc3cc(O)c(O)cc3[C@H]21 [Brazilin]
  Inhibition%(80μM): 101.06% and 101.28%
  inhibition at 80 µM: 101%

## CCCCCC/C=C\CCCCCCCC(=O)O [Palmitoleic Acid]
  Inhibition%(80μM): 103.78% and 102.80%
  inhibition at 80 µM: 103%

## OCCc1ccc(O)c(O)c1 [3,4-Dihydroxyphenylethanol]
  Inhibition%(80μM): 102.33% and 102.25%
  inhibition at 80 µM: 101%
